Experimental data reported in patent publication US20250228239A1, “MOLECULES HAVING PESTICIDAL UTILITY, AND INTERMEDIATES, COMPOSITIONS, AND PROCESSES, RELATED THERETO” (priority 2024, published 2025).
Read-outs that look alike come from different tables or passages of the source.

Key:
Format in all cases: in vivo
[1] = test system: Beet Armyworm (Spodoptera exigua, LAPHEG); assay: Bioassays on Beet Armyworm (BAW), 128-well diet tray assay; conditions: Spodoptera exigua
Summary of the method: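 Second-instar larvae, one to five per well, were placed on artificial diet surface-treated with 50 μg/cm^2 compound in 90:10 acetone-water, eight wells per treatment. Trays were held 5–7 days at 25 °C, 14:10 light-dark. Percent mortality per well was averaged over eight wells.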

[2] = test system: Cabbage Looper (Trichoplusia ni, TRIPNI); assay: Bioassays on Cabbage Looper (CL), 128-well diet tray assay; conditions: Trichoplusia ni
Summary of the method: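 Activity is mean percent mortality over eight wells of second-instar larvae exposed to diet treated at 50 μg/cm^2 for 5–7 days at 25° C.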

[3] = test system: Green Peach Aphid (Myzus persicae, MYZUPE); assay: Bioassays on Green Peach Aphid (GPA), foliar spray on cabbage seedlings; conditions: 72 h
Summary of the method: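 Percent control (Abbott-corrected versus solvent-sprayed plants) comes from live-aphid counts three days after treatment at about 25° C. Test solution at 200 ppm was sprayed to runoff onto both leaf surfaces of cabbage seedlings infested a day earlier with 20-50 aphids; four replicate pots.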

[4] = test system: Yellow Fever Mosquito (Aedes aegypti, AEDSAE); conditions: for YFM rating: Table ABC / ABC-DP rating
Summary of the method: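 Mortality after 3 days at room temperature is the read-out, scored well by well and converted to a rating. Test molecules came from 4000 ppm stocks in DMSO, further diluted in 90:10 water/acetone, and were exposed to roughly 1-day-old larvae suspended in liver-powder water.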

[5] = Table ABC: Biological Results, species BAW, read-out: BAW
[6] = Table ABC: Biological Results, species CL, read-out: CL
[7] = Table ABC: Biological Results, species GPA, read-out: GPA
[8] = Table ABC: Biological Results, species YFM
[9] = Beet Armyworm, rating class, read-out: BAW
[10] = Cabbage Looper, rating class, read-out: CL
[11] = Green Peach Aphid, rating class, read-out: GPA
[12] = Yellow Fever Mosquito, rating class
[13] = Beet Armyworm, Table ABC / ABC-DP rating, read-out: BAW rating
[14] = Cabbage Looper, Table ABC / ABC-DP rating, read-out: CL rating
[15] = Green Peach Aphid, Table ABC / ABC-DP rating, read-out: GPA rating

SMILES	pest or weed control at 50 µg/cm2 [1, 13]	pest or weed control at 50 µg/cm2 [2, 14]	pest or weed control at 200 µg/mL [3, 15]	YFM rating ([4]; Yellow Fever Mosquito)	further results
Cc1c(NC(=O)c2cc(NC(=O)[C@H]3[C@H](c4cc(Cl)cc(Cl)c4)C3(Cl)Cl)ccc2Cl)ccc([N+](=O)[O-])c1C (relative stereo) [F1180, trans-2-chloro-5-(2,2-dichloro-3-(3,5-dichlorophenyl)cyclopropane-1-carboxamido)-N-(2,3-dimethyl-4-nitrophenyl)benzamide]	–	–	–	–	pest or weed control at 50 µg/cm2 [1, 5]: 50 to 100%; pest or weed control at 50 µg/cm2 [2, 6]: 50 to 100%; pest or weed control at 200 µg/mL [3, 7]: 0 to 80%; YFM [4, 8]: A (80–100)
Cc1cc(NC(=O)[C@H]2[C@H](c3ccc(F)c(Cl)c3)C2(Cl)Cl)cc(C(=O)Nc2ccc(F)cc2F)c1Cl (relative stereo) [F1185, trans-2-Chloro-5-(2,2-dichloro-3-(3-chloro-4-fluorophenyl)cyclopropane-1-carboxamido)-N-(2,4-difluorophenyl)-3-methylbenzamide]	–	–	–	–	pest or weed control at 50 µg/cm2 [1, 5]: 50 to 100%; pest or weed control at 50 µg/cm2 [2, 6]: 50 to 100%; pest or weed control at 200 µg/mL [3, 7]: 80 to 100%; YFM [4, 8]: A (80–100)
Nc1c(F)ccc(NC(=O)c2cc(NC(=O)[C@H]3[C@H](c4ccc(Cl)cc4)C3(Cl)Cl)ccc2Cl)c1F (relative stereo) [F1593, trans-N-(3-Amino-2,4-difluorophenyl)-2-chloro-5-(2,2-dichloro-3-(4-chlorophenyl)cyclopropane-1-carboxamido)benzamide]	–	–	–	–	pest or weed control at 50 µg/cm2 [1, 9]: 50 to 100%; pest or weed control at 50 µg/cm2 [2, 10]: 50 to 100%; pest or weed control at 200 µg/mL [3, 11]: 80 to 100%; YFM [4, 12]: A (80–100)
O=C(Nc1ccc(F)c(NC(=O)C(F)F)c1F)c1cc(NC(=O)[C@H]2[C@H](c3ccc(F)cc3)C2(Cl)Cl)ccc1Cl (relative stereo) [F1598, trans-2-Chloro-5-(2,2-dichloro-3-(4-fluorophenyl)cyclopropane-1-carboxamido)-N-(3-(2,2-difluoroacetamido)-2,4-difluorophenyl)benzamide]	–	–	–	–	pest or weed control at 50 µg/cm2 [1, 9]: 50 to 100%; pest or weed control at 50 µg/cm2 [2, 10]: 50 to 100%; pest or weed control at 200 µg/mL [3, 11]: 80 to 100%; YFM [4, 12]: A (80–100)
CC(=O)Nc1ccc(F)c(NC(=O)c2cc(NC(=O)[C@H]3[C@H](c4cc(Cl)cc(Cl)c4)C3(Cl)Cl)ccc2Cl)c1 (relative stereo) [F1635, trans-N-(5-Acetamido-2-fluorophenyl)-2-chloro-5-(2,2-dichloro-3-(3,5-dichlorophenyl)cyclopropane-1-carboxamido)benzamide]	–	–	–	–	pest or weed control at 50 µg/cm2 [1, 9]: 50 to 100%; pest or weed control at 50 µg/cm2 [2, 10]: 50 to 100%; pest or weed control at 200 µg/mL [3, 11]: 0 to 80%; YFM [4, 12]: A (80–100)
CC(=O)Nc1cccc(F)c1NC(=O)c1cc(NC(=O)[C@H]2[C@H](c3cc(Cl)cc(Cl)c3)C2(Cl)Cl)ccc1Cl (relative stereo) [F1636, trans-N-(2-Acetamido-6-fluorophenyl)-2-chloro-5-(2,2-dichloro-3-(3,5-dichlorophenyl)cyclopropane-1-carboxamido)benzamide]	–	–	–	–	pest or weed control at 50 µg/cm2 [1, 9]: 50 to 100%; pest or weed control at 50 µg/cm2 [2, 10]: 50 to 100%; pest or weed control at 200 µg/mL [3, 11]: 0 to 80%; YFM [4, 12]: A (80–100)
O=C(NCC(F)(F)F)c1cc(NC(=O)[C@H]2[C@H](c3ccc(F)c(Cl)c3F)C2(Cl)Cl)ccc1Cl (relative stereo) [F2011, trans-2-Chloro-5-(2,2-dichloro-3-(3-chloro-2,4-difluorophenyl)cyclopropane-1-carboxamido)-N-(2,2,2-trifluoroethyl)benzamide]	50 to 100%	50 to 100%	0 to 80%	A (80–100)	–
CCNC(=O)c1c(F)ccc(NC(=O)[C@H]2[C@H](c3ccc(F)c(Cl)c3)C2(Cl)Cl)c1F (relative stereo) [F2016, trans-3-(2,2-Dichloro-3-(3-chloro-4-fluorophenyl)cyclopropane-1-carboxamido)-N-ethyl-2,6-difluorobenzamide]	50 to 100%	50 to 100%	80 to 100%	A (80–100)	–
O=C(NCC(F)(F)F)c1c(F)ccc(NC(=O)[C@H]2[C@H](c3ccc(F)c(Cl)c3)C2(Cl)Cl)c1F (relative stereo) [F2017, trans-3-(2,2-Dichloro-3-(3-chloro-4-fluorophenyl)cyclopropane-1-carboxamido)-2,6-difluoro-N-(2,2,2-trifluoroethyl)benzamide]	50 to 100%	50 to 100%	80 to 100%	A (80–100)	–
O=C(NCC(F)(F)F)c1c(Cl)ccc(NC(=O)[C@H]2[C@H](c3ccc(F)c(Cl)c3)C2(Cl)Cl)c1Cl (relative stereo) [F2020, trans-2,6-Dichloro-3-(2,2-dichloro-3-(3-chloro-4-fluorophenyl)cyclopropane-1-carboxamido)-N-(2,2,2-trifluoroethyl)benzamide]	50 to 100%	50 to 100%	0 to 80%	A (80–100)	–
CCCNC(=O)c1c(F)ccc(NC(=O)[C@H]2[C@H](c3ccc(F)c(Cl)c3)C2(Cl)Cl)c1F (relative stereo) [F2021, trans-3-(2,2-Dichloro-3-(3-chloro-4-fluorophenyl)cyclopropane-1-carboxamido)-2,6-difluoro-N-propylbenzamide]	50 to 100%	50 to 100%	80 to 100%	A (80–100)	–
O=C(NCCF)c1c(Cl)ccc(NC(=O)[C@H]2[C@H](c3ccc(F)c(Cl)c3)C2(Cl)Cl)c1Cl (relative stereo) [F2025, trans-2,6-Dichloro-3-(2,2-dichloro-3-(3-chloro-4-fluorophenyl)cyclopropane-1-carboxamido)-N-(2-fluoroethyl)benzamide]	50 to 100%	50 to 100%	0 to 80%	A (80–100)	–
O=C(NCCCCl)c1c(Cl)ccc(NC(=O)[C@H]2[C@H](c3ccc(F)c(Cl)c3)C2(Cl)Cl)c1Cl (relative stereo) [F2026, trans-2,6-Dichloro-N-(3-chloropropyl)-3-(2,2-dichloro-3-(3-chloro-4-fluorophenyl)cyclopropane-1-carboxamido)benzamide]	50 to 100%	50 to 100%	0 to 80%	A (80–100)	–
O=C(NCCF)c1c(F)ccc(NC(=O)[C@H]2[C@H](c3ccc(F)c(Cl)c3)C2(Cl)Cl)c1F (relative stereo) [F2027, trans-3-(2,2-Dichloro-3-(3-chloro-4-fluorophenyl)cyclopropane-1-carboxamido)-2,6-difluoro-N-(2-fluoroethyl)benzamide]	50 to 100%	50 to 100%	80 to 100%	A (80–100)	–
Cc1cc(NC(=O)[C@H]2[C@H](c3ccc(F)c(Cl)c3)C2(Cl)Cl)cc(C(=O)NCC(F)(F)C(F)(F)F)c1Cl (relative stereo) [F2039, trans-2-Chloro-5-(2,2-dichloro-3-(3-chloro-4-fluorophenyl)cyclopropane-1-carboxamido)-3-methyl-N-(2,2,3,3,3-pentafluoropropyl)benzamide]	50 to 100%	50 to 100%	80 to 100%	A (80–100)	–
Cc1cc(NC(=O)[C@H]2[C@H](c3ccc(F)c(Cl)c3)C2(Cl)Cl)cc(C(=O)NCCCCl)c1Cl (relative stereo) [F2040, trans-2-Chloro-N-(3-chloropropyl)-5-(2,2-dichloro-3-(3-chloro-4-fluorophenyl)cyclopropane-1-carboxamido)-3-methylbenzamide]	50 to 100%	50 to 100%	0 to 80%	A (80–100)	–
Cc1c(Cl)cc(NC(=O)[C@H]2[C@H](c3ccc(F)c(Cl)c3)C2(Cl)Cl)cc1C(=O)NCC(F)(F)F (relative stereo) [F2042, trans-3-Chloro-5-(2,2-dichloro-3-(3-chloro-4-fluorophenyl)cyclopropane-1-carboxamido)-2-methyl-N-(2,2,2-trifluoroethyl)benzamide]	50 to 100%	50 to 100%	80 to 100%	A (80–100)	–
CC(F)(F)CNC(=O)c1cc(NC(=O)[C@H]2[C@H](c3cc(Cl)cc(Cl)c3)C2(Cl)Cl)ccc1Cl (relative stereo) [F2075, trans-2-Chloro-5-(2,2-dichloro-3-(3,5-dichlorophenyl)cyclopropane-1-carboxamido)-N-(2,2-difluoropropyl)benzamide]	50 to 100%	50 to 100%	80 to 100%	B (More than 0 – Less than 80)	–
